Laboratory results from patent publication US20100256177A1, “Flavopereirine derivatives for cancer therapy” (priority 2004, published 2010).
≈ marks a conversion by molar mass, not a printed value.

Key:
Format in all cases: cell-based
[1] = tested on: PA1 (ovary) human tumor cell line; assay: three day MTT cytotoxicity assay, PA1 ovarian; details: PA1 ovarian cells, 72 hours
Description: (§1) A number of the Flavopereirine derivatives were tested for cytotoxicity against nine (9) human tumor cell lines. Briefly, a three day MTT cytotoxicity assay was performed, which is based on the principle of uptake of MTT (3-(4,5-dimethylthiazol-2-yl)-2,5-diphenyl tetrazolium bromide), a tetrazolium salt, by the metabolically active cells where it is metabolized by active mitochondria into a blue colored formazan product that is read spectrophotometrically. MIT was dissolved in phosphate buffered saline with a pH of 7.4 to obtain an MTT concentration of 5 mg/ml; the resulting mixture was filtered through a 0.22-micron filter to sterilize and remove a small amount of insoluble residue. For each type of tumor cell, 10000 to 15000 cells were seeded in a 96-well culture plate and incubated with the individual Flavopereirine derivatives in concentration ranging from 1-20 μg/ml in a CO2 incubator for a total of 72 hours. Control cells not treated with the Flavopereirine derivatives were similarly incubated. The assay was terminated by adding 100 μg (20 μl) of MTT to each well, then incubating for additional one hour, and finally adding 50 μl of 10% SDS-0.01N HCl to each well to lyse the cells and dissolve formazan. After incubating for one hour, the plate was read spectrophotometrically at 540 nm and the percentage of cytotoxicity calculated using the following formula:
(§2) Cytotoxicity percentage=100×[1-(X/R1)], where X=(absorbance of treated sample at 540 nm)−(absorbance of blank at 540 nm) R1=absorbance of control sample at 540 nm.
(§3) The IC50 Values of the cytotoxicity defined as the concentration at which 50% of the cells are killed in vitro was calculated for each cell line treated with each of the Flavopereirine derivatives.
(§4) The cell lines are ovary (PA-1), breast (MCF-7), prostate (DU145), pancreas (MiaPaCa.2), oral cavity (KB), lung (L132), colon (SW620), and larynx (HeP2).

[2] = tested on: KB (oral cavity) human tumor cell line; assay: three day MTT cytotoxicity assay, KB oral; details: KB oral cells, 72 hours
Description: as §1, §2, §3, §4

[3] = tested on: L132 (lung) human tumor cell line; assay: three day MTT cytotoxicity assay, L132 lung; details: L132 lung cells, 72 hours
Description: as §1, §2, §3, §4

[4] = tested on: Hep2 (larynx) human tumor cell line; assay: three day MTT cytotoxicity assay, Hep2 larynx; details: 72 hours; for IC50 (μg/mL) of Flavoperereine derivatives in human tumor cell lines, Hep2 Larynx: Hep2 larynx cells
Description: as §1, §2, §3, §4

[5] = tested on: SW620 (colon) human tumor cell line; assay: three day MTT cytotoxicity assay, SW620 colon; details: 72 hours; for IC50 (μg/mL) of Flavoperereine derivatives in human tumor cell lines, SW620 Colon: SW620 colon cells
Description: as §1, §2, §3, §4

[6] = tested on: ECV-304 (endothelial) cell line; assay: three day MTT cytotoxicity assay, ECV-304 endothelial; details: ECV-304 endothelial cells, 72 hours
Description: as §1, §2, §3

[7] = tested on: MCF7 (breast) human tumor cell line; assay: three day MTT cytotoxicity assay, MCF7 breast; details: MCF7 breast cells, 72 hours
Description: as §1, §2, §3, §4

[8] = tested on: DU145 (prostate) human tumor cell line; assay: three day MTT cytotoxicity assay, DU145 prostate; details: 72 hours; for IC50 (μg/mL) of Flavoperereine derivatives in human tumor cell lines, DU145 Prostate: DU145 prostate cells
Description: as §1, §2, §3, §4

[9] = tested on: MiaPaca2 (pancreas) human tumor cell line; assay: three day MTT cytotoxicity assay, MiaPaca2 pancreas; details: 72 hours; for IC50 (μg/mL) of Flavoperereine derivatives in human tumor cell lines, MiaPaca2 Pancreas: MiaPaca2 pancreas cells
Description: as §1, §2, §3, §4

SMILES	IC50 (μg/mL) of Flavoperereine derivatives in human tumor cell lines, PA1 Ovarian [1]	IC50 (μg/mL) of Flavoperereine derivatives in human tumor cell lines, KB Oral [2]	IC50 (μg/mL) of Flavoperereine derivatives in human tumor cell lines, L132 Lung [3]	IC50 (μg/mL) of Flavoperereine derivatives in human tumor cell lines, Hep2 Larynx [4]	IC50 (μg/mL) of Flavoperereine derivatives in human tumor cell lines, SW620 Colon [5]	IC50 (μg/mL) of Flavoperereine derivatives in human tumor cell lines, ECV-304 Endothelial [6]	IC50 (μg/mL) of Flavoperereine derivatives in human tumor cell lines, MCF7 Breast [7]	IC50 (μg/mL) of Flavoperereine derivatives in human tumor cell lines, DU145 Prostate [8]	IC50 (μg/mL) of Flavoperereine derivatives in human tumor cell lines, MiaPaca2 Pancreas [9]	IC50 ([1]; Homo sapiens, read-out: IC50 (μg/mL) of Flavoperereine derivatives in human tumor cell lines, PA1 Ovarian)	IC50 ([7]; Homo sapiens, read-out: IC50 (μg/mL) of Flavoperereine derivatives in human tumor cell lines, MCF7 Breast)	IC50 ([8]; Homo sapiens, DU-145, DU145 prostate cells, read-out: IC50 (μg/mL) of Flavoperereine derivatives in human tumor cell lines, DU145 Prostate)	IC50 ([9]; Homo sapiens, MIA PaCa-2, MiaPaca2 pancreas cells, read-out: IC50 (μg/mL) of Flavoperereine derivatives in human tumor cell lines, MiaPaca2 Pancreas)	IC50 ([2]; Homo sapiens, read-out: IC50 (μg/mL) of Flavoperereine derivatives in human tumor cell lines, KB Oral)	IC50 ([3]; Homo sapiens, read-out: IC50 (μg/mL) of Flavoperereine derivatives in human tumor cell lines, L132 Lung)	IC50 ([4]; Homo sapiens, HEp-2, Hep2 larynx cells, read-out: IC50 (μg/mL) of Flavoperereine derivatives in human tumor cell lines, Hep2 Larynx)	IC50 ([5]; Homo sapiens, SW-620, SW620 colon cells, read-out: IC50 (μg/mL) of Flavoperereine derivatives in human tumor cell lines, SW620 Colon)	IC50 ([6]; Homo sapiens, read-out: IC50 (μg/mL) of Flavoperereine derivatives in human tumor cell lines, ECV-304 Endothelial)
CCOc1ccc2[n+](c1)CCc1c-2[nH]c2ccccc12 [Compound 24, 3-ethoxy-6,7-dihydroindolo[2,3-a]quinolizinium]	38 µg/mL	50 µg/mL	20 µg/mL	89 µg/mL	30 µg/mL	64 µg/mL												
Oc1ccc2[n+](c1)CCc1c-2[nH]c2ccccc12 [Compound 22, 3-hydroxy-6,7-dihydroindolo[2,3-a]quinolizinium]	>100 µg/mL	>100 µg/mL	>100 µg/mL	>100 µg/mL	>100 µg/mL		>100 µg/mL	>100 µg/mL	>100 µg/mL									
CCCCOc1ccc2[n+](c1)CCc1c-2[nH]c2ccccc12.[Br-] [Compound 27]	4.7 µg/mL	7 µg/mL		5 µg/mL	4 µg/mL		6 µg/mL	9 µg/mL	7.5 µg/mL									
CCCCOc1ccc2c3[nH]c4ccccc4c3cc[n+]2c1.[Br-] [Compound 33]	<1 µg/mL	1.6 µg/mL		2.4 µg/mL	1.4 µg/mL		3 µg/mL	5 µg/mL	2 µg/mL									
CCOc1ccc2c3[nH]c4ccccc4c3cc[n+]2c1 [Compound 29, 3-ethoxyindolor-2,3-alquinolizinium]	5 µg/mL	10 µg/mL	15 µg/mL	8.0 µg/mL	10 µg/mL	4 µg/mL												
Brc1ccc(COc2ccc3[n+](c2)CCc2c-3[nH]c3ccccc23)cc1.[Br-] [Compound 26]	>100 µg/mL	6 µg/mL		24 µg/mL	>100 µg/mL	12 µg/mL	>100 µg/mL	7.5 µg/mL	9.5 µg/mL									
BrCCCOc1ccc2c3[nH]c4ccccc4c3cc[n+]2c1.[O-][Cl+3]([O-])([O-])[O-] [Compound 30]	2 µg/mL	10 µg/mL	10 µg/mL	1.5 µg/mL	6 µg/mL	6 µg/mL	6 µg/mL	7.5 µg/mL	4 µg/mL									
c1ccc(COc2ccc3c4[nH]c5ccccc5c4cc[n+]3c2)cc1 [Compound 28, 3-benzyloxyindolo[2,3-a]quinolizinium]	1.5 µg/mL	2 µg/mL	2 µg/mL	1.5 µg/mL	<1 µg/mL	4 µg/mL	5 µg/mL	2 µg/mL	2 µg/mL									
Fc1ccc(COc2ccc3c4[nH]c5ccccc5c4cc[n+]3c2)cc1.[O-][Cl+3]([O-])([O-])[O-] [Compound 32]	6 µg/mL	<1 µg/mL	<1 µg/mL	4 µg/mL	5 µg/mL	24 µg/mL	<1 µg/mL	2 µg/mL	<1 µg/mL									
Fc1ccc(COc2ccc3[n+](c2)CCc2c-3[nH]c3ccccc23)cc1.[O-][Cl+3]([O-])([O-])[O-] [Compound 25]	36 µg/mL	8 µg/mL	9 µg/mL	44 µg/mL	44 µg/mL	24 µg/mL	34 µg/mL	41 µg/mL	30 µg/mL									
C1=CC2=C3N=c4ccccc4=C3CCN2C=C1OCc1ccccc1 [Compound 23, 3-benzyloxy-6,7-dihydroindolo[2,3-a]quinolizine]										31 µg/mL (≈ 95 µM)	5 µg/mL (≈ 15.3 µM)	10 µg/mL (≈ 30.6 µM)	10 µg/mL (≈ 30.6 µM)	12 µg/mL (≈ 36.8 µM)	20 µg/mL (≈ 61.3 µM)	17 µg/mL (≈ 52.1 µM)	11 µg/mL (≈ 33.7 µM)	16 µg/mL (≈ 49 µM)
[Br-].c1ccc(COc2ccc3c4[nH]c5ccccc5c4cc[n+]3c2)cc1 [Compound 31]	4 µg/mL	<1 µg/mL	4.5 µg/mL	3 µg/mL	5 µg/mL	13.5 µg/mL	4 µg/mL	4.5 µg/mL	<1 µg/mL									
